Laboratory results taken from patent US9468624B2, “Small molecule antagonists of bacterial quorum-sensing receptors” (priority 2008, dated 2016).

Tests used:
[1] = molecular target: T1, LuxN (Vibrio campbellii, UniProt A7MRY4); experiment: V. harveyi bioluminescence dose-response; assay type: cell-based, Vibrio harveyi; conditions: IC50 for inhibition of bioluminescence
T1 construct: Light production from wild type V. harveyi (BB120), a luxPQ mutant (BB960), and a luxPQ, luxS double mutant (JMH624) was measured; endogenous in cells; host or cells: V. harveyi BB120, BB960 (luxQ::Tn5), JMH624 (ΔluxM, luxQ::Tn5)
T1 sequence (A7MRY4 whole entry): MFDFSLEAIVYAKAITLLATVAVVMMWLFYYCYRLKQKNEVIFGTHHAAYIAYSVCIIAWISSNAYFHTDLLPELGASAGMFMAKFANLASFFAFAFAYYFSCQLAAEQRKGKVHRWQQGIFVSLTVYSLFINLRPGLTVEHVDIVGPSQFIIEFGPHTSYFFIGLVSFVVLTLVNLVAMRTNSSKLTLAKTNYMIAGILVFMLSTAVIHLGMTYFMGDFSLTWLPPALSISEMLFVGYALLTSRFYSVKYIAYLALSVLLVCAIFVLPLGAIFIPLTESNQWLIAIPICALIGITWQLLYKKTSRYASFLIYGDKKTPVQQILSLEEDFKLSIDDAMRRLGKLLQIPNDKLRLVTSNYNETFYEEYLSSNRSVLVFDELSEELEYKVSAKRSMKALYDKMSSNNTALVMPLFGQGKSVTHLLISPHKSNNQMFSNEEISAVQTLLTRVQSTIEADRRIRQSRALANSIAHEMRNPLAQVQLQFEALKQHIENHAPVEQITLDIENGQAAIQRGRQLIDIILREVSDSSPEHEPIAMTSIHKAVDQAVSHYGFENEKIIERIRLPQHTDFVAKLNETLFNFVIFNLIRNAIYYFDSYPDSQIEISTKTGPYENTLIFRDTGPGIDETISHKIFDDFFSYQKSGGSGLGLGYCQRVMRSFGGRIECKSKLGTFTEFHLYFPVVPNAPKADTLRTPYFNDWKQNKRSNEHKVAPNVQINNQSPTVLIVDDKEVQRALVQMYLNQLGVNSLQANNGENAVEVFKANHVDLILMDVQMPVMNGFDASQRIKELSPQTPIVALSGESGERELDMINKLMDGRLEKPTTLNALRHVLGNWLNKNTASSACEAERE
Description: Wild type C. violaceum strain ATCC31532 was purchased from the ATCC. The cviI mutant strain, CV026 was kindly supplied by Clay Fuqua and Paul Williams. C. violaceum strains were grown aerobically at 30° C. in either Luria-Bertani broth or Nutrient Broth supplemented with 1 mM trypotophan. V. harveyi strains were grown aerobically at 30° C. in autoinducer bioassay (AB) broth. AI-1 dose-response curves were generated in V. harveyi strains BB120, BB960 and JMH624 as described. E. coli was grown at 37° C. in Luria Bertani broth. The plasmid pET23b (Novagen) was used for expressing cviR in E. coli strain BL21-Gold (DE3) or BL21(DE3) pLysS (Stratagene) and maintained by inclusion of Ampicillin at 100 μg/ml. Plasmid pEVS141 was used for the vioA-gfp promoter fusion and maintained with 50 μg/ml of Kanamycin. C. elegans wild type strain, N2 was used for all of the nematode infection studies. Worms were propagated on Nematode Growth Media (NGM) medium with an E. coli OP50 lawn as the food source and allowed to multiply at 20° C.
To determine the properties of CTL and CL in relation to the LuxN receptor, the in vivo activity was examined of 4606-4237, CTL, and CL for V. harveyi LuxN using dose response analyses of the endogenous quorum-sensing-activated target, bioluminescence. Three different V harveyi strains were examined (1) The wild type V. harveyi strain BB120 which has multiple quorum-sensing circuits, and thus responds to multiple autoinducers, only one of which is the AHL acting through LuxN. (2) V. harveyi BB960 which lacks the receptor for the second autoinducer making the AHL-LuxN circuit the dominant input into bioluminescence expression. (3) V. harveyi JMH624 which, in addition to lacking the receptor for the second autoinducer lacks the AHL synthase LuxM. Thus, V. harveyi JMH624 induces bioluminescence exclusively in response to the AHL, 3OH-C4-HSL signal but only when it is supplied exogenously. Exogenous addition of 20 nM 3OH-C4-HSL is sufficient to induce maximal bioluminescence in all of these strains.

[2] = molecular target: CviR (Chromobacterium violaceum, UniProt D3W065); conditions: CviR expressed in E. coli, whole cell vs soluble extract, ligand 50 μM
Sequence of CviR (D3W065 1-265): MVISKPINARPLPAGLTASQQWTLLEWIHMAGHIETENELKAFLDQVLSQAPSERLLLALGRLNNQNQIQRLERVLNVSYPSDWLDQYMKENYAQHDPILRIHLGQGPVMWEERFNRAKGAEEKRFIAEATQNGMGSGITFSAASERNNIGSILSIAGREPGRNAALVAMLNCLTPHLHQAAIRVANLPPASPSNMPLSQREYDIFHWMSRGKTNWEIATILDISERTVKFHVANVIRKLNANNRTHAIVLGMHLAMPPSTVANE
Description: CviR Overexpression and Purification. CviR was overexpressed in BL21(DE3) pLysS by growing an overnight culture in LB supplemented with 100 μg/mL ampicillin and 10 μg/mL chloramphenicol. The culture was diluted 1:50 into fresh LB supplemented with 100 μg/mL ampicillin and 10 μg/mL chloramphenicol and grown shaking at 37° C. to an OD600 of 0.4. Various AHL or antagonist molecules were added to at 50 μM and incubated an additional 30 minutes at 30° C., after which expression was induced by the addition of 100 μM IPTG (isopropyl-β-D-thiogalactopyranoside) for 4 hours at 30° C. Cells were harvested by centrifugation and lysed in 20 mM imidazole pH 8.0, 100 mM NaCl, 0.5 mM EDTA and 5% glycerol via a Micro-fluidizer processor (MicroFluidics). Protein was purified via ion-exchange using a Hitrap Heparin HP column (GE Healthcare). Protein was eluted with a 100 mM to 1 M NaCl gradient. Fractions containing CviR were pooled and diluted in lysis buffer devoid of NaCl, and then further purified by cation exchange chromatography using a Hitrap SP HP column (GE Healthcare). CviR was eluted with a 100 mM to 1 M NaCl gradient.
The solubility characteristics of CviR were analyzed in the presence of the various molecules under study. […] As controls, the protein was also expressed in the absence of any AHL or antagonist. In each case, whole cell and soluble fractions of cell lysates were analyzed by SDS-PAGE to assess whether the CviR protein in question had been stabilized.

[3] = system: CviR-dependent violacein production; experiment: Violacein production in wild type C. violaceum, dose-response; assay type: cell-based; conditions: Chromobacterium violaceum, read-out: IC50 for inhibition of violacein production
Description: E. coli strains were grown overnight in LB medium with antibiotics at 37° C. and sub-cultured into fresh medium at a 1:100 dilution. Various AHL and antagonists were added at constant concentrations or titrated as stated. The gfp was measured on an Envision plate reader after 5 hours of growth at 37° C. C. violaceum strains were grown aerobically in 1 mL Nutrient Broth plus 1 mM tryptophan at 30° C. […] Cells were collected via centrifugation at 13000 rpm for 15 minutes. Pellets were resuspended in 1 mL of methanol and incubated at 42° C. for 1 hour. Samples were again collected via centrifugation at 13000 rpm for 5 minutes and analyzed for violacein by measuring optical density at 568 nm on a Beckman Coulter DU-800 spectrophotometer. For the dose-response analyses, all assays were performed in triplicate.
To determine if 4606-4237 inhibits violacein production specifically by interfering with CviR, 4606-4237 was tested for antagonism of CviR in the recombinant E. coli vioA-gfp assay. For these experiments, C6-HSL was held constant at 500 nM, while 4606-4237 was titrated from 1.3 nM to 100 μM (FIG. 3D). This concentration of native C6-HSL signal induces maximal gfp production in this heterologous assay system. Importantly, no C. violaceum components other than CviR are present in the recombinant E. coli assay strain. Thus, any inhibition occurring would be due to a specific interaction between the antagonist molecule 4606-4237 and CviR rather than an interaction of 4606-4237 with some unknown component required for violacein production in C. violaceum. […] Thus, 4606-4237 functions by disabling CviR-mediated activation of gene expression in both the C. violaceum in vivo violacein assay and the recombinant E. coli vioA-gfp assay.

[4] = V. harveyi JMH624 + 20 nM 3OH-C4-HSL

| Compound | IC50 ([1]; V. harveyi BB960) [µM] | IC50 [1, 4] [µM] | IC50 ([1]; wild type V. harveyi BB120) [µM] | CviR folding and solubility in presence of ligand [2] | IC50 [3] [µM] |
| --- | --- | --- | --- | --- | --- |
| O=C(CCCOc1ccc(Cl)cc1)NC1CCOC1=O (stereo not shown) [CL, chlorolactone] | 14 | 0.873 | 40 | promoted CviR31532 folding and solubility | 0.295 |
| O=C(CCCOc1ccc(Cl)cc1)NC1CCSC1=O (stereo not shown) [CTL, Chloro-thiolactone] | 28 | 6 | 150 | promoted CviR31532 folding and solubility | 0.723 |
